This experiment concerns the target T1, Core-binding factor subunit beta (Homo sapiens, UniProt Q13951).
T1 sequence (Q13951 whole entry): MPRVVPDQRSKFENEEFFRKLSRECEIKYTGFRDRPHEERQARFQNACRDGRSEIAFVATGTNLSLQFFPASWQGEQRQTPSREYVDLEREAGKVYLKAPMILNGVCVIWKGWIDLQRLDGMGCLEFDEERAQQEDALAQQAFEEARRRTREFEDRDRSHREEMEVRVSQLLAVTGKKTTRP
The experiment can be described thus: Fluorescence Resonance Energy Transfer (FRET) Assay. The text has this:
FRET assay can be used to effectively monitor the inhibition of CBF binding to the Runt domain of RUNX proteins (as well as for CBFβ-SMMHC binding to the Runt domain of RUNX proteins). For the assay, the green fluorescent protein derivative Cerulean is fused to the N-terminus of the Runt domain and the green fluorescent protein derivative Venus to the N-terminus of CBFβ.

Among the data in BindingDB's records for patent US10562890 (University of Virginia Patent Foundation, 2020) are IC50 values, retold here.

One may read the IC50 as the point on the concentration scale where inhibition reaches its midpoint. The low end stands for higher potency, the high end for lower potency.

`FC(F)(F)Oc1ccc2[nH]c(-c3ccc(OCCN4CCN(Cc5ccccc5)CC4)cn3)nc2c1` [US10562890, Compound Al-14-95] had an IC50 of 2650 nM.

In turn, `COc1cc(OCCN2CCN(Cc3ccccc3)CC2)cnc1-c1nc2cc(OC(F)(F)F)ccc2[nH]1` [US10562890, Compound Al-14-100] had an IC50 of 2160 nM.
